Reference: patent US20040072770A1, “Methods for specifically inhibiting histone deacetylase-7 and 8” (priority 2002, published 2004)
pIC50: −log10 of the molar value. Entries after “also recorded” stand apart in the source; their conditions may differ. One block for each compound: values may come before it. d = 2'-deoxy (DNA); m = 2'-O-methyl

Legend:
Du145 cells = assay: Growth inhibition by antisense oligos, Du145; format: cell-based, human; conditions: 50 nM, 48 hour, vs cells treated with lipofectin
Description: (§1) For all ex vivo oligo treatment, human A549 human […] carcinoma cells were seeded in 10 cm tissue culture dishes one day prior to oligonucleotide treatment. The cell lines were obtained from the American Type Culture Collection (ATCC) (Manassas, Va.) and were grown under the recommended culture conditions. Before the addition of the oligonucleotides, cells were washed with PBS (phosphate buffered saline). Next, lipofectin transfection reagent (GIBCO BRL Mississauga, Ontario, Calif.), at a concentration of 6.25 μg/ ml, was added to serum free OPTIMEM medium (GIBCO BRL, Rockville, Md.), which was then added to the cells. The oligonucleotides were added directly to the cells (i.e., one oligonucleotide per plate of cells). Mismatched oligonucleotides were used as controls. The same concentration of oligonucleotide (e.g., 50 nM) was used per plate of cells for each oligonucleotide tested.
(§2) In order to determine the effect of HDAC ODNs on cell growth inhibition and cell death through apoptosis, A549, T24, DuI45, HCT116 cells (ATCC, Manassas, Va.), or HMEC cells (BioWhittaker, Walkersville, Md.) were treated with HDAC ODNs as previously described.
(§3) For the cell growth inhibition analysis, human cancer or normal cells were treated with 50 nM of paired AS or MM oligos directed against human HDAC-1, HDAC-7 or HDAC-8for up to 96 hours. Cell numbers were counted every day by trypan blue exclusion. Percentage of inhibition was calculated as (100 - AS cell numbers/control cell numbers)%.

human HDAC-7 protein = assay: HDAC-7 protein expression in A549 cells, SDS-PAGE and antibody probing; format: cell-based; conditions: 25 or 50 nM, 48 hours (time course 24 or 48 hours)
Description: In order to determine whether treatment with HDAC ODNs would inhibit HDAC protein expression, human A549 cancer cells were treated with 25 or 50 nM of paired antisense or its mismatch oligos directed against human HDAC-7 for 48 hours. ODN treatment conditions were as previously described.
Cells were lysed in buffer containing 1% Triton X-100, 0.5% sodium deoxycholate, 5 mM EDTA, 25 mM Tris-HCl, pH 7.5, plus protease inhibitors. Total protein was quantified by the protein assay reagent from Bio-Rad (Hercules, Calif.). 100 ug of total protein was analyzed by SDS-PAGE. Next, total protein was transferred onto a PVDF membrane and probed with HDAC-7-specific primary antibodies.

p21 protein = p21 protein expression in A549 cells; format: cell-based, human
human HDAC-7 mRNA = assay: HDAC-7 mRNA expression in A549 cells, Northern blot; format: cell-based; conditions: for HDAC-7 RNA expression, initial screen: 100 nM; for HDAC-7 RNA expression, initial screen / HDAC-7 mRNA expression, dose response (FIG. 1): 24 hours; for HDAC-7 mRNA expression, dose response (FIG. 1): 25 or 50 nM
Description: (§4) To identify antisense oligodeoxynucleotide (ODN) capable of inhibiting HDAC-7 expression in human cancer cells, eighteen phosphorothioate ODNs containing sequences complementary to the 5′ or 3′ UTR of the human […] (GenBank Accession No. AF239243) were initially screened in A549 cells at 100 nM. Cells were harvested after 24 hours of treatment, and HDAC-7 RNA expression was analyzed by Northern blot analysis. […] Total RNAs were harvested and were analyzed by Northern Blot. GAPDH expression was analyzed to indicate total RNA loading in each lane.
(§5) In order to determine the dose response of HDAC7 antisense inhibitors to reduce HDAC7 message at the mRNA level, Human A549 cells were treated with 25 or 50 nM of antisense (AS1 and AS2) oligos directed against human HDAC-7 or the corresponding mismatch of AS1 (MM1) oligo or an universal mismatch (UMM) for 24 hours. […] The time dependence of HDAC7 antisense inhibitors on blocking HDAC7 gene expression at the mRNA level was analyzed by treating A549 cells with 50 nM AS1 or MM1 oligos. […] Similarly, A549 cells were treated with 25 nM or 50 nM of AS1 or AS2 oligos directed against human HDAC-8 or its MM oligo for AS2 (MM2) for 24 hours. AS-2 oligo against human HDAC8 at 50 nM was also used to treat A549 cells for 24 or 48 hours.
as §1
(§6) Cells were harvested, and total RNAs were analyzed by Northern blot analysis. Briefly, total RNA was extracted using RNeasy miniprep columns (QIAGEN Canada, Mississauga, Ontario). Ten to twenty […] of total RNA was run on a formaldehyde-containing 1% agarose gel with 0.5 M sodium phosphate (pH 7.0) as the buffer system. RNAs were then transferred to nitrocellulose membranes and hybridized with the indicated radiolabeled DNA probes. Autoradiography was performed using conventional procedures.

HDAC-8 = molecular target: T1, HDAC-8 (Homo sapiens, UniProt Q9BY41); assay: Enzyme inhibitory activity, HD8; format: biochemical; conditions: read-out: IC50 HD 8
T1 sequence (Q9BY41 1-377): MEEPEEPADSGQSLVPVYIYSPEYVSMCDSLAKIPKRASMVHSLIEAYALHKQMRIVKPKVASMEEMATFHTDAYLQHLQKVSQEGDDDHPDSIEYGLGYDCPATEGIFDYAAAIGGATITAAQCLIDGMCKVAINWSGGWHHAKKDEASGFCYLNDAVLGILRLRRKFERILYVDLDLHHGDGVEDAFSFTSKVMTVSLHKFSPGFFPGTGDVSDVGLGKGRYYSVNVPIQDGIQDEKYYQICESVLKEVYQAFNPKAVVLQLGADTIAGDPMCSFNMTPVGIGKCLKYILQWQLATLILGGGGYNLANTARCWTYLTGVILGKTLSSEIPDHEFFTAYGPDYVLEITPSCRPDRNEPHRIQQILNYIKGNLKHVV

HDAC-4 = HDAC-4 (Homo sapiens, UniProt P56524); assay: Enzyme inhibitory activity, HD4; format: biochemical
[1] = system: colon cancer cells HCT116; assay: MTT assay, HCT116; format: cell-based, human; conditions: 72 hours; read-out: IC50 HCT 116 (MTT)
Description: Effects of HDAC isotype-specific small molecule inhibitors on growth inhibition of various human cancer cells (from ATCC) in vitro were determined by MTT assays. Briefly, cells seeded in 96-well plates were incubated for 72 hours at 37° C. in a 5% CO2 incubator. MTT (Sigma) was added at a final concentration of 0.5 mg/ml and incubated with the cells for 4 hours before an equal volume of solubilization buffer (50% N,N-dimethylformamide, 20% SDS, pH 4.7) was added onto cultured cells. After overnight incubation, solubilized dye was quantified by colorimetric reading at […] using a reference at 630 nM. OD values were converted to cell numbers according to a standard growth curve of the relevant cell line. The concentration which reduces cell numbers to 50% of those of DMSO-treated cells is determined as MTT IC50. In Table 4, IC50s of several HDAC7 or HDAC8 inhibitors in MTT assays in various human cancer cell lines were listed. They include colon cancer cells HCT116 and SW48, lung cancer cells A549 and H446, breast cancer cells MCF-7 and MDAmb231, a prostate cancer cell line Du145 and a bladder cancer cell line T24.

HDAC-1 = HDAC-1 (Homo sapiens, UniProt Q13547); assay: Enzyme inhibitory activity, HD1; format: biochemical; conditions: read-out: IC50 HD 1
A549 cells = assay: Growth inhibition by antisense oligos, A549; format: cell-based, human; conditions: 50 nM, 48 hour, vs cells treated with lipofectin
Description: as §1, §2, §3

human HDAC-8 mRNA = assay: HDAC-8 mRNA expression in A549 cells, Northern blot; format: cell-based; conditions: 24 hours
Description: as §4, with “antisense oligodeoxynucleotides” for “antisense oligodeoxynucleotide”, “inhibiting HDAC-8” for “inhibiting HDAC-7”, “cells, fourteen” for “cells, eighteen”, “No. AF230097)” for “No. AF239243)”, “and HDAC-8” for “and HDAC-7”
as §5, §1, §6

Chain of HDAC-4 (P56524 whole entry): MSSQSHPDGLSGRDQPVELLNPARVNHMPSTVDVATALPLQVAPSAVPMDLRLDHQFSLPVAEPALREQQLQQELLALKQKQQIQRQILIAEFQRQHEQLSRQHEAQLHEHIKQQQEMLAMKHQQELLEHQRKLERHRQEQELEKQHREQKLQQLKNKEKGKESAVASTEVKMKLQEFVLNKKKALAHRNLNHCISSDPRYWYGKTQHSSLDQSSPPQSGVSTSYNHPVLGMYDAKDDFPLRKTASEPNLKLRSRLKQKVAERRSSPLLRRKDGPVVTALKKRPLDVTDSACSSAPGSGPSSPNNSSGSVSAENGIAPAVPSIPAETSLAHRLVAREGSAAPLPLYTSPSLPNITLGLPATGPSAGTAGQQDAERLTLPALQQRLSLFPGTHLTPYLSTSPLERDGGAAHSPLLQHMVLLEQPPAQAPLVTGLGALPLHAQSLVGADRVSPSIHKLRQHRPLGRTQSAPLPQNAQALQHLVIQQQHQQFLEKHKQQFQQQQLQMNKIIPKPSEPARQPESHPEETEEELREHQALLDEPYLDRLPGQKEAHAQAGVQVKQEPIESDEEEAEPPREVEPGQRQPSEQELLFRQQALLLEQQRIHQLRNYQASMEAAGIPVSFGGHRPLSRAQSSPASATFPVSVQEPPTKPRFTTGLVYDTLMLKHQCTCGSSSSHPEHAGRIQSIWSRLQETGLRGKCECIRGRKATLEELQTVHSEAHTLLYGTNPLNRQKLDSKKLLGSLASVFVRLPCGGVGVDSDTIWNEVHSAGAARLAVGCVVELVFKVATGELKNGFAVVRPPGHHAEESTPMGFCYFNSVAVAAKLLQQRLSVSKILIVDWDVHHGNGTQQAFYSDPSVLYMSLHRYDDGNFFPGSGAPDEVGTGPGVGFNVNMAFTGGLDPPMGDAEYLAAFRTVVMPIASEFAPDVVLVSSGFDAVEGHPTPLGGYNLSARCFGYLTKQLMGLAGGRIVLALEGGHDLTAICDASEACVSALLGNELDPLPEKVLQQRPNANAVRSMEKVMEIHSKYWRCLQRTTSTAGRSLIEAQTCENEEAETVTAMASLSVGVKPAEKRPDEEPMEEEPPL
Chain of HDAC-1 (Q13547 whole entry): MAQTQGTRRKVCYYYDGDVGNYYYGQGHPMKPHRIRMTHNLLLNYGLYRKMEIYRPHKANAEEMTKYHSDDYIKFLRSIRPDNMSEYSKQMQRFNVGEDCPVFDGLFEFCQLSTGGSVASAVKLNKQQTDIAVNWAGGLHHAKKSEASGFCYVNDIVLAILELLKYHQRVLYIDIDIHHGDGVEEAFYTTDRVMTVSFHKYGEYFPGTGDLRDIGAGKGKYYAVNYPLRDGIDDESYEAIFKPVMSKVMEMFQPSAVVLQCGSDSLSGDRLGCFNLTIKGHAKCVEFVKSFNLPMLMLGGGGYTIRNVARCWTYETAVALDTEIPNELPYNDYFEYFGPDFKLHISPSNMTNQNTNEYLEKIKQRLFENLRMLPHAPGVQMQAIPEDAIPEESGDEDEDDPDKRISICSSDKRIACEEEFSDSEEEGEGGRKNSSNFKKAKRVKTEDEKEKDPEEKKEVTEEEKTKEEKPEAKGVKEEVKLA

Compound: 5′-CGCUTTCCTTGTCATTGACA-3′ (sugars from the 5' end m4 d12 m4, all phosphorothioate, methylation of C not given here) [HD3 AS1, antisense oligo, Human HDAC3 3′-UTR]
Growth Inhibition Du145 (Du145 cells): + (“+” means >35% inhibition of cell growth by antisense oligos (50 nM, 48 hour) compared to that of cells treated with lipofectin)

Compound: 5′-GCAGCGGCGGCAGCACCUCC-3′ (sugars from the 5' end m4 d12 m4, all phosphorothioate, methylation of C not given here) [HD5 AS1, antisense oligo, Human HDAC5 5′-UTR]
Growth Inhibition Du145 (Du145 cells): + (“+” means >35% inhibition of cell growth by antisense oligos (50 nM, 48 hour) compared to that of cells treated with lipofectin)

Compound: 5′-CUUCAGCCAGGATGCCCACA-3′ (sugars from the 5' end m4 d12 m4, all phosphorothioate, methylation of C not given here) [HDAC7 AS2, antisense oligo, Human HDAC7 3′-UTR]
HDAC-7 protein expression (FIG. 2, FIG. 4) (human HDAC-7 protein): inhibited
p21 protein expression (FIG. 2) (p21 protein): induced
HDAC-7 RNA expression, initial screen (human HDAC-7 mRNA): good antisense activities
HDAC-7 mRNA expression, dose response (FIG. 1) (human HDAC-7 mRNA): can inhibit human HDAC7 expression at the mRNA level; also recorded: inhibited in a dose-dependent manner

pIC50 (HDAC-8): 6.40
pIC50 (HDAC-4): < 5.00
pIC50 [1]: 5.22
pIC50 (HDAC-1): 5.70
Compound: CC(C=CC(=O)NO)=CC(C)Cc1ccc(N(C)C)cc1 (stereo not shown) [Compound 4, N-Hydroxy-4,6-dimethyl-7-[(4-N,N-dimethylaminophenyl)]-2,4-heptadienamide]

Compound: 5′-CAGGCTCACTTGACAAUGGC-3′ (sugars from the 5' end m4 d12 m4, all phosphorothioate, methylation of C not given here) [HD7 AS1, antisense oligo, Human HDAC7 5′-UTR]
HDAC-7 protein expression (FIG. 2, FIG. 4) (human HDAC-7 protein): inhibited
p21 protein expression (FIG. 2) (p21 protein): induced
HDAC-7 mRNA expression, time course (FIG. 3) (human HDAC-7 mRNA; 50 nM): significantly block gene expression of human HDAC7 at the mRNA level by 24 hours
HDAC-7 RNA expression, initial screen (human HDAC-7 mRNA): good antisense activities
HDAC-7 mRNA expression, dose response (FIG. 1) (human HDAC-7 mRNA; listed as HDAC7 AS1): can inhibit human HDAC7 expression at the mRNA level; also recorded: inhibited in a dose-dependent manner
Growth Inhibition A549 (A549 cells): + (“+” means >35% inhibition of cell growth by antisense oligos (50 nM, 48 hour) compared to that of cells treated with lipofectin)
Growth Inhibition Du145 (Du145 cells): + (“+” means >35% inhibition of cell growth by antisense oligos (50 nM, 48 hour) compared to that of cells treated with lipofectin)

Compound: 5′-CUCCGGCTCCTCCATCUUCC-3′ (sugars from the 5' end m4 d12 m4, all phosphorothioate, methylation of C not given here) [HDAC8 AS1, antisense oligo, Human HDAC8 5′-UTR]
HDAC-8 mRNA expression, dose response (FIG. 5) (human HDAC-8 mRNA; 25 nM or 50 nM): inhibited in a dose-dependent manner
HDAC-8 RNA expression, initial screen (human HDAC-8 mRNA; 100 nM): good antisense activities
